Assays:
[1] = tested on: Flkd6 cardiomyocytes whose differentiation was induced from mouse ES cells EMG-7; assay: Proliferation of mouse ES cell (EMG-7)-derived cardiomyocytes Flkd6: number of alpha-MHC-GFP-positive cells; assay type: cell-based; conditions: for number of alpha-MHC-GFP-positive cells after addition (screening): Flkd6 purified by FACS, cultured for 5 days, 1 μM BIO, 5 μM SU1498, 5 μM KN93, FIG. 1a; for number of alpha-MHC-GFP-positive cells by FACS: cultured for 2 days (Flkd6+2) or 5 days (Flkd6+5), especially Flkd6+5, FIG. 1b; for cardiomyocyte-proliferation-promoting effect (number of alpha-MHC-GFP-positive cells per well): Flkd6+5, FIGS. 3a, 3b, 3d
Description: The human iPS cells (253G1) were provided by Prof. […] 253G1 cells are available from RIKEN BRC.
Thereafter, Flk1-positive cells were separated using FACS, and the separated cells were cultured on OP9 cells using a 3 μg/ml Cyclosporine A-containing medium (alpha MEM supplemented with 10% FBS) for 6 days, to induce differentiation into cardiomyocytes. These cells are hereinafter referred to as Flkd6.
The above-mentioned Flkd6, obtained by differentiation of EMG-7, was subjected to purification by FACS using alpha-MHC-GFP as an index. […] These three agents were added to Flkd6, and the cells were then cultured for 2 days (Flkd6+2) or 5 days (Flkd6+5), followed by measuring the number of alpha-MHC-GFP-positive cells by FACS.

[2] = tested on: Flkd6 cardiomyocytes whose differentiation was induced from EMG-7; assay: Influence on cell cycle: cells positive for pH3 (M phase) or EdU (S phase) in Flkd6; assay type: cell-based, mouse; conditions: Flkd6 cultured with agent; FIG. 2
Description: DMSO is a control wherein only a solvent was added.
In order to examine the influence on the cell cycle, the number of cells positive for phosphorylation of histone 3 (pH3) (M phase) or ethynyl […] (EdU) (S phase) was assayed (FIG. 2a-d).

Structure (SMILES) | number of alpha-MHC-GFP-positive cells after addition (screening) [1] | number of alpha-MHC-GFP-positive cells by FACS [1] | cardiomyocyte-proliferation-promoting effect (number of alpha-MHC-GFP-positive cells per well) [1] | influence on the cell cycle: pH3 (M phase) or EdU (S phase) positive cells [2]
COc1ccc(S(=O)(=O)N(CCO)c2ccccc2CN(C)CC=Cc2ccc(Cl)cc2)cc1 [KN93] | significantly increased the number of alpha-MHC-GFP-positive cells | significant increase in the number of the positive cells | – | –
Cc1c[nH]c(-c2cnc(NCCNc3ccc(C#N)cn3)nc2-c2ccc(Cl)cc2Cl)n1 [CHIR99021] | – | – | also have similar effects | –
O=C1Nc2cc(Br)ccc2/C1=C1/Nc2ccccc2/C1=N\O [BIO, 6-bromoindirubin 3′-oxime] | significantly increased the number of alpha-MHC-GFP-positive cells | significant increase in the number of the positive cells | – | promotes the S phase and the M phase from the early stage after its addition
CC(C)c1cc(/C=C(\C#N)C(=O)NCCCc2ccccc2)cc(C(C)C)c1O [SU1498, (E)-3-(3,5-diisopropyl-4-hydroxyphenyl)-2-[(3-phenyl-n-propyl)aminocarbonyl]acrylonitrile] | significantly increased the number of alpha-MHC-GFP-positive cells | significant increase in the number of the positive cells | – | –
Cc1ccc(NC(=O)c2cccc(N(C)C)c2)cc1NC(=O)c1ccc(O)cc1 [ZM336372, 3-(dimethylamino)-N-[3-[(4-hydroxybenzoyl)amino]-4-methylphenyl]benzamide] | – | – | has a cardiomyocyte-proliferation-promoting effect | –
CN([C@@H](Cc1ccc(OS(=O)(=O)c2cccc3cnccc23)cc1)C(=O)N1CCN(c2ccccc2)CC1)S(=O)(=O)c1cccc2cnccc12 [KN62, 1-[N,O-bis(5-isoquinolinesulfonyl)-N-methyl-L-tyrosyl]-4-phenylpiperazine] | – | – | also have similar effects | –
